{"source": "patent US20240365784A1", "about": "“AZOLE COMPOUNDS FOR CONTROLLING INVERTEBRATE PESTS” (FMC Corporation, priority 2021, published 2024)", "data": [{"system": "corn planthopper (Peregrinus maidis (Ashmead))", "assay": "whole plant or invertebrate", "type": "in vivo", "conditions": "144 h, sprayed at 10 ppm, corn plant, nymphs, assessed after 6 days", "method": "(§1) Test compounds were formulated using a solution containing 10% acetone, 90% water and 300 ppm Activator 90® non-ionic surfactant (Loveland Products, Loveland, Colorado, USA). The formulated compounds were applied in 1 mL of liquid through an atomizer nozzle positioned 1.27 cm (0.5 inches) above the top of each test unit. Test compounds were sprayed at the rates indicated, and each test was replicated three times.\n(§2) For evaluating control of corn planthopper (Peregrinus maidis (Ashmead)) through contact and/or systemic means, the test unit consisted of a small open container with a 3-4-day-old corn (maize) plant inside. White sand was added to the top of the soil prior to application of the test compound.\n(§3) Test compounds were formulated and sprayed at 250 and/or 50 ppm and/or 10 ppm. After spraying of the formulated test compound, the test units were allowed to dry for 1 h before they were post-infested with ˜15-20 nymphs (18-to-21-day-old). A black, screened cap was placed on the top of each test unit, and the test units were held for 6 days in a growth chamber at 22-24° C. and 50-70% relative humidity. Each test unit was then visually assessed for insect mortality.", "units": {"mortality at 10 ppm": "%"}, "values": [{"smiles": "Fc1cc(Cc2c(F)cncc2-n2nccn2)ccc1C(F)(F)F", "note": "[Compound 73]", "mortality at 10 ppm": "≥ 80"}]}, {"system": "corn planthopper (Peregrinus maidis (Ashmead))", "assay": "whole plant or invertebrate", "type": "in vivo", "conditions": "144 h, sprayed at 50 ppm, corn plant, nymphs, assessed after 6 days", "method": "as §1, §2, §3", "units": {"mortality at 50 ppm": "%"}, "values": [{"smiles": "FC(F)(F)Sc1ccc(Cc2c(Cl)cncc2-n2ccnn2)cc1", "note": "[Compound 6]", "mortality at 50 ppm": "≥ 80"}, {"smiles": "CC(c1ccc(SC(F)(F)F)cc1)c1c(F)cncc1-n1ccnn1", "note": "(centres unmarked) [Compound 11]", "mortality at 50 ppm": "≥ 80"}, {"smiles": "FC(F)(F)Oc1ccc(Cc2ccncc2-n2nccn2)cc1", "note": "[Compound 16]", "mortality at 50 ppm": "≥ 80"}, {"smiles": "[O-][S+](c1ccc(Cc2c(F)cncc2-n2nccn2)cc1)C(F)(F)F", "note": "(centres unmarked) [Compound 18]", "mortality at 50 ppm": "≥ 80"}, {"smiles": "FC(F)(F)Sc1ccc(Cc2c(Cl)cncc2-c2nccs2)cc1", "note": "[Compound 35]", "mortality at 50 ppm": "≥ 80"}, {"smiles": "FC(F)(F)Sc1ccc(Cc2c(Cl)cncc2-c2ncco2)cc1", "note": "[Compound 37]", "mortality at 50 ppm": "≥ 80"}, {"smiles": "CC(c1ccc(SC(F)(F)F)cc1)c1c(F)cncc1-n1cccn1", "note": "(centres unmarked) [Compound 50]", "mortality at 50 ppm": "≥ 80"}, {"smiles": "CC(c1ccc(SC(F)(F)F)cc1)c1c(Cl)cncc1-n1cncn1", "note": "(centres unmarked) [Compound 51]", "mortality at 50 ppm": "≥ 80"}, {"smiles": "CC(c1ccc(SC(F)(F)F)cc1)c1c(F)cncc1-n1cncn1", "note": "(centres unmarked) [Compound 52]", "mortality at 50 ppm": "≥ 80"}, {"smiles": "CCC(c1ccc(OC(F)(F)F)cc1)c1c(F)cncc1-n1nccn1", "note": "(centres unmarked) [Compound 60]", "mortality at 50 ppm": "≥ 80"}, {"smiles": "Fc1cncc(-n2nccn2)c1Cc1cccc(OC(F)(F)C(F)F)c1", "note": "[Compound 65]", "mortality at 50 ppm": "≥ 80"}, {"smiles": "Fc1cc(Cc2c(F)cncc2-n2nccn2)ccc1C(F)(F)F", "note": "[Compound 73]", "mortality at 50 ppm": "≥ 80"}]}, {"system": "green peach aphid (Myzus persicae (Sulzer))", "assay": "whole plant or invertebrate", "type": "in vivo", "conditions": "144 h, sprayed at 50 ppm, radish plant, assessed after 6 days", "method": "as §1\nFor evaluating control of green peach aphid (Myzus persicae (Sulzer)) through contact and/or systemic means, the test unit consisted of a small open container with a 12-15-day-old radish plant inside. This was pre-infested by placing on a leaf of the test plant 30-40 aphids on a piece of leaf excised from a culture plant (cut-leaf method). The aphids moved onto the test plant as the leaf piece desiccated. After pre-infestation, the soil of the test unit was covered with a layer of sand.\nTest compounds were formulated and sprayed at 250 and/or 50 ppm. After spraying of the formulated test compound, each test unit was allowed to dry for 1 hour and then a black, screened cap was placed on top. The test units were held for 6 days in a growth chamber at 19-21° C. and 50-70% relative humidity. Each test unit was then visually assessed for insect mortality.", "units": {"mortality at 50 ppm": "%"}, "values": [{"smiles": "CC(c1ccc(SC(F)(F)F)cc1)c1c(Cl)cncc1-n1nccn1", "note": "(centres unmarked) [Compound 14]", "mortality at 50 ppm": "≥ 80"}, {"smiles": "FC(F)(F)Oc1ccc(Cc2c(Br)cncc2-n2nccn2)cc1", "note": "[Compound 15]", "mortality at 50 ppm": "≥ 80"}, {"smiles": "[O-][S+](c1ccc(Cc2c(F)cncc2-n2nccn2)cc1)C(F)(F)F", "note": "(centres unmarked) [Compound 18]", "mortality at 50 ppm": "≥ 80"}, {"smiles": "[O-][S+](c1ccc(Cc2c(Cl)cncc2-n2nccn2)cc1)C(F)(F)F", "note": "(centres unmarked) [Compound 22]", "mortality at 50 ppm": "≥ 80"}, {"smiles": "CC(c1ccc(SC(F)(F)F)cc1)c1c(Cl)cncc1-n1cncn1", "note": "(centres unmarked) [Compound 51]", "mortality at 50 ppm": "≥ 80"}, {"smiles": "CC(c1ccc(SC(F)(F)F)cc1)c1c(F)cncc1-n1cncn1", "note": "(centres unmarked) [Compound 52]", "mortality at 50 ppm": "≥ 80"}]}, {"system": "cotton melon aphid (Aphis gossypii (Glover))", "assay": "whole plant or invertebrate", "type": "in vivo", "conditions": "144 h, sprayed at 50 ppm, okra plant, assessed after 6 days", "method": "as §1\n(§4) For evaluating control of cotton melon aphid (Aphis gossypii (Glover)) through contact and/or systemic means, the test unit consisted of a small open container with a 5-day-old okra plant inside. This was pre-infested with 30-40 insects on a piece of leaf according to the cut-leaf method, and the soil of the test unit was covered with a layer of sand.\n(§5) […] After spraying, the test units were maintained in a growth chamber for 6 days at 19° C. and 70% relative humidity. Each test unit was then visually assessed for insect mortality.", "units": {"mortality at 50 ppm": "%"}, "values": [{"smiles": "CC(c1ccc(SC(F)(F)F)cc1)c1c(F)cncc1-n1ccnn1", "note": "(centres unmarked) [Compound 11]", "mortality at 50 ppm": "≥ 80"}, {"smiles": "CC(c1ccc(SC(F)(F)F)cc1)c1c(Cl)cncc1-n1nccn1", "note": "(centres unmarked) [Compound 14]", "mortality at 50 ppm": "≥ 80"}, {"smiles": "FC(F)(F)Oc1ccc(Cc2c(Br)cncc2-n2nccn2)cc1", "note": "[Compound 15]", "mortality at 50 ppm": "≥ 80"}, {"smiles": "FC(F)(F)Oc1ccc(Cc2ccncc2-n2nccn2)cc1", "note": "[Compound 16]", "mortality at 50 ppm": "≥ 80"}, {"smiles": "FC(F)(F)Oc1ccc(Cc2c(I)cncc2-n2nccn2)cc1", "note": "[Compound 17]", "mortality at 50 ppm": "≥ 80"}, {"smiles": "[O-][S+](c1ccc(Cc2c(F)cncc2-n2nccn2)cc1)C(F)(F)F", "note": "(centres unmarked) [Compound 18]", "mortality at 50 ppm": "≥ 80"}, {"smiles": "[O-][S+](c1ccc(Cc2c(Cl)cncc2-n2nccn2)cc1)C(F)(F)F", "note": "(centres unmarked) [Compound 22]", "mortality at 50 ppm": "≥ 80"}, {"smiles": "FC(F)(F)Sc1ccc(Cc2c(Cl)cncc2-c2nccs2)cc1", "note": "[Compound 35]", "mortality at 50 ppm": "≥ 80"}, {"smiles": "CC(c1ccc(SC(F)(F)F)cc1)c1c(F)cncc1-n1cccn1", "note": "(centres unmarked) [Compound 50]", "mortality at 50 ppm": "≥ 80"}, {"smiles": "CC(c1ccc(SC(F)(F)F)cc1)c1c(Cl)cncc1-n1cncn1", "note": "(centres unmarked) [Compound 51]", "mortality at 50 ppm": "≥ 80"}, {"smiles": "CC(c1ccc(SC(F)(F)F)cc1)c1c(F)cncc1-n1cncn1", "note": "(centres unmarked) [Compound 52]", "mortality at 50 ppm": "≥ 80"}, {"smiles": "CCC(c1ccc(OC(F)(F)F)cc1)c1c(F)cncc1-n1nccn1", "note": "(centres unmarked) [Compound 60]", "mortality at 50 ppm": "≥ 80"}, {"smiles": "Fc1cncc(-n2nccn2)c1Cc1cccc(OC(F)(F)C(F)F)c1", "note": "[Compound 65]", "mortality at 50 ppm": "≥ 80"}, {"smiles": "Fc1cc(Cc2c(F)cncc2-n2nccn2)ccc1C(F)(F)F", "note": "[Compound 73]", "mortality at 50 ppm": "≥ 80"}]}, {"system": "cotton melon aphid (Aphis gossypii (Glover))", "assay": "whole plant or invertebrate", "type": "in vivo", "conditions": "144 h, tested at 10 ppm, okra plant, assessed after 6 days", "method": "as §1, §4, §5", "units": {"mortality at 10 ppm": "%"}, "values": [{"smiles": "FC(F)(F)Oc1ccc(Cc2ccncc2-n2nccn2)cc1", "note": "[Compound 16]", "mortality at 10 ppm": "≥ 80"}, {"smiles": "Fc1cc(Cc2c(F)cncc2-n2nccn2)ccc1C(F)(F)F", "note": "[Compound 73]", "mortality at 10 ppm": "≥ 80"}]}, {"system": "sweetpotato whitefly (Bemisia tabaci (Gennadius))", "assay": "whole plant or invertebrate", "type": "in vivo", "conditions": "312 h, sprayed at 50 ppm, cotton plant infested with eggs, assessed after 13 days", "method": "as §1\n(§6) For evaluating control of the sweetpotato whitefly (Bemisia tabaci (Gennadius)) through contact and/or systemic means, the test unit consisted of a small open container with a 12-14-day-old cotton plant inside. Prior to the spray application, both cotyledons were removed from the plant, leaving one true leaf for the assay. Adult whiteflies were allowed to lay eggs on the plant and then were removed from the test unit. Cotton plants infested with at least 15 eggs were submitted to the test for spraying.\n(§7) […] After spraying, the test units were allowed to dry for 1 hour. The cylinders were then removed, and the units were taken to a growth chamber and held for 13 days at 28° C. and 50-70% relative humidity. Each test unit was then visually assessed for insect mortality.", "units": {"mortality at 50 ppm": "%"}, "values": [{"smiles": "FC(F)(F)Sc1ccc(Cc2c(Cl)cncc2-n2ccnn2)cc1", "note": "[Compound 6]", "mortality at 50 ppm": "≥ 70"}, {"smiles": "CC(c1ccc(SC(F)(F)F)cc1)c1c(Cl)cncc1-n1nccn1", "note": "(centres unmarked) [Compound 14]", "mortality at 50 ppm": "≥ 70"}, {"smiles": "FC(F)(F)Oc1ccc(Cc2c(Br)cncc2-n2nccn2)cc1", "note": "[Compound 15]", "mortality at 50 ppm": "≥ 70"}, {"smiles": "FC(F)(F)Oc1ccc(Cc2ccncc2-n2nccn2)cc1", "note": "[Compound 16]", "mortality at 50 ppm": "≥ 70"}, {"smiles": "FC(F)(F)Oc1ccc(Cc2c(I)cncc2-n2nccn2)cc1", "note": "[Compound 17]", "mortality at 50 ppm": "≥ 70"}, {"smiles": "[O-][S+](c1ccc(Cc2c(F)cncc2-n2nccn2)cc1)C(F)(F)F", "note": "(centres unmarked) [Compound 18]", "mortality at 50 ppm": "≥ 70"}, {"smiles": "[O-][S+](c1ccc(Cc2c(Cl)cncc2-n2nccn2)cc1)C(F)(F)F", "note": "(centres unmarked) [Compound 22]", "mortality at 50 ppm": "≥ 70"}, {"smiles": "FC(F)(F)Sc1ccc(Cc2c(Cl)cncc2-c2nccs2)cc1", "note": "[Compound 35]", "mortality at 50 ppm": "≥ 70"}, {"smiles": "CC(c1ccc(SC(F)(F)F)cc1)c1c(Cl)cncc1-n1cncn1", "note": "(centres unmarked) [Compound 51]", "mortality at 50 ppm": "≥ 70"}, {"smiles": "CC(c1ccc(SC(F)(F)F)cc1)c1c(F)cncc1-n1cncn1", "note": "(centres unmarked) [Compound 52]", "mortality at 50 ppm": "≥ 70"}, {"smiles": "CCC(c1ccc(OC(F)(F)F)cc1)c1c(F)cncc1-n1nccn1", "note": "(centres unmarked) [Compound 60]", "mortality at 50 ppm": "≥ 70"}]}, {"system": "sweetpotato whitefly (Bemisia tabaci (Gennadius))", "assay": "whole plant or invertebrate", "type": "in vivo", "conditions": "312 h, tested at 10 ppm, cotton plant infested with eggs, assessed after 13 days", "method": "as §1, §6, §7", "units": {"mortality at 10 ppm": "%"}, "values": [{"smiles": "CCC(c1ccc(OC(F)(F)F)cc1)c1c(F)cncc1-n1nccn1", "note": "(centres unmarked) [Compound 60]", "mortality at 10 ppm": "≥ 70"}]}]}
